Measurements: patent US10280170B2, “Substituted 4,5,6,7-tetrahydro-pyrazolo[1,5-a]pyrazine derivatives and 5,6,7,8-tetrahydro-4H-pyrazolo[1,5-a][1,4]diazepine derivatives as Ros1 inhibitors” (Janssen Pharmaceutica NV, priority 2014, dated 2019)
Read-outs that look alike come from different tables or passages of the source.

Assays:
[1] = test system: Ros pY2274 in HCC78 cells; test: pROS1 immunofluorescence assay in HCC78 cells; format: cell-based; details: Homo sapiens, read-out: HCC78-pRos1 pIC50 (converted)
Protocol: pROS1 Immunofluorescence Assay in HCC78 Cells
Approximately 20000 HCC78 non-small cell lung cancer cells in 180 μl of cell culture medium (RPMI-1640, 10% FBS, 2 mM L-Glutamine, 10 mM Hepes, 1 mM sodium pyruvate, 4.5 g/L glucose, 1.5 g/L sodium bicarbonate, 25 μg/ml Gentamycin) were seeded in each well of a 96-well polystyrene, poly-D-lysine coated plate and incubated at 37° C. and 5% CO2. After 24 hours, compounds were diluted in cell culture medium from which 20 μl was added to the wells containing cells and incubated for 4 hours at 37° C. and 5% CO2. The medium was removed and the cells were fixed by adding 100 μl of 5% formaldehyde in TBS (tris-buffered saline) (50 mM Tris.HCl, pH 7.4, 150 mM NaCl) and incubating for 15 minutes at room temperature. The formaldehyde was removed and replaced with methanol for 10 minutes at room temperature, after which the cells were washed 3 times with TBS containing 1% Triton X-100 and incubated in Odyssee (Li-Cor) blocking buffer for 1 hour at room temperature. The cells were then incubated with the primary rabbit antibody directed against Ros pY2274 (cst-3078) diluted 1/200 in blocking buffer for 24 hours at room temperature. The cells were washed three times with TBS containing 0.1% Triton X-100 and incubated with a secondary anti-rabbit antibody conjugated to the fluorescent dye Alexafluor 680 in blocking buffer for 1 hour at room temperature. The cells were washed three times with TBS containing 0.1% Triton X-100 and left to dry before measuring RFUs (Relative Fluorescence Units) at 700 nm using a fluorescence imager.
The same experiment was performed using total Ros1 antibody (sc-6347) diluted 1/1000 instead of Ros1 pY2274 antibody and an anti-goat antibody conjugated to IRDye800cw as a secondary antibody. RFUs were measured at […]. The signals from total Ros1 detection were used to normalize the Ros1 pY2274 values.

[2] = test system: HCC78 non-small cell lung cancer cells; test: HCC78 cell proliferation assay; format: cell-based; details: Homo sapiens, HCC78, 96 h, read-out: HCC-78 PROL pEC50 (converted)
Summary of the method: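 HCC78 NSCLC cells (~1000/well) in RPMI-1640 with 10% FBS were treated 24 h after seeding and exposed to compound for 4 days at 37 °C. Viability was read by MTT, with absorbance at 538 nm after DMSO/glycine solubilization.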

Ros1 enzyme = molecular target: T1, Ros1 enzyme (Homo sapiens, UniProt P08922); test: Ros1 enzymatic assay; format: biochemical; details: Ros1 enzymatic assay; read-out: ROS1 pIC50 (converted)
T1 construct: 0.5 μg/ml Ros1 enzyme
T1 sequence (P08922 28-2347): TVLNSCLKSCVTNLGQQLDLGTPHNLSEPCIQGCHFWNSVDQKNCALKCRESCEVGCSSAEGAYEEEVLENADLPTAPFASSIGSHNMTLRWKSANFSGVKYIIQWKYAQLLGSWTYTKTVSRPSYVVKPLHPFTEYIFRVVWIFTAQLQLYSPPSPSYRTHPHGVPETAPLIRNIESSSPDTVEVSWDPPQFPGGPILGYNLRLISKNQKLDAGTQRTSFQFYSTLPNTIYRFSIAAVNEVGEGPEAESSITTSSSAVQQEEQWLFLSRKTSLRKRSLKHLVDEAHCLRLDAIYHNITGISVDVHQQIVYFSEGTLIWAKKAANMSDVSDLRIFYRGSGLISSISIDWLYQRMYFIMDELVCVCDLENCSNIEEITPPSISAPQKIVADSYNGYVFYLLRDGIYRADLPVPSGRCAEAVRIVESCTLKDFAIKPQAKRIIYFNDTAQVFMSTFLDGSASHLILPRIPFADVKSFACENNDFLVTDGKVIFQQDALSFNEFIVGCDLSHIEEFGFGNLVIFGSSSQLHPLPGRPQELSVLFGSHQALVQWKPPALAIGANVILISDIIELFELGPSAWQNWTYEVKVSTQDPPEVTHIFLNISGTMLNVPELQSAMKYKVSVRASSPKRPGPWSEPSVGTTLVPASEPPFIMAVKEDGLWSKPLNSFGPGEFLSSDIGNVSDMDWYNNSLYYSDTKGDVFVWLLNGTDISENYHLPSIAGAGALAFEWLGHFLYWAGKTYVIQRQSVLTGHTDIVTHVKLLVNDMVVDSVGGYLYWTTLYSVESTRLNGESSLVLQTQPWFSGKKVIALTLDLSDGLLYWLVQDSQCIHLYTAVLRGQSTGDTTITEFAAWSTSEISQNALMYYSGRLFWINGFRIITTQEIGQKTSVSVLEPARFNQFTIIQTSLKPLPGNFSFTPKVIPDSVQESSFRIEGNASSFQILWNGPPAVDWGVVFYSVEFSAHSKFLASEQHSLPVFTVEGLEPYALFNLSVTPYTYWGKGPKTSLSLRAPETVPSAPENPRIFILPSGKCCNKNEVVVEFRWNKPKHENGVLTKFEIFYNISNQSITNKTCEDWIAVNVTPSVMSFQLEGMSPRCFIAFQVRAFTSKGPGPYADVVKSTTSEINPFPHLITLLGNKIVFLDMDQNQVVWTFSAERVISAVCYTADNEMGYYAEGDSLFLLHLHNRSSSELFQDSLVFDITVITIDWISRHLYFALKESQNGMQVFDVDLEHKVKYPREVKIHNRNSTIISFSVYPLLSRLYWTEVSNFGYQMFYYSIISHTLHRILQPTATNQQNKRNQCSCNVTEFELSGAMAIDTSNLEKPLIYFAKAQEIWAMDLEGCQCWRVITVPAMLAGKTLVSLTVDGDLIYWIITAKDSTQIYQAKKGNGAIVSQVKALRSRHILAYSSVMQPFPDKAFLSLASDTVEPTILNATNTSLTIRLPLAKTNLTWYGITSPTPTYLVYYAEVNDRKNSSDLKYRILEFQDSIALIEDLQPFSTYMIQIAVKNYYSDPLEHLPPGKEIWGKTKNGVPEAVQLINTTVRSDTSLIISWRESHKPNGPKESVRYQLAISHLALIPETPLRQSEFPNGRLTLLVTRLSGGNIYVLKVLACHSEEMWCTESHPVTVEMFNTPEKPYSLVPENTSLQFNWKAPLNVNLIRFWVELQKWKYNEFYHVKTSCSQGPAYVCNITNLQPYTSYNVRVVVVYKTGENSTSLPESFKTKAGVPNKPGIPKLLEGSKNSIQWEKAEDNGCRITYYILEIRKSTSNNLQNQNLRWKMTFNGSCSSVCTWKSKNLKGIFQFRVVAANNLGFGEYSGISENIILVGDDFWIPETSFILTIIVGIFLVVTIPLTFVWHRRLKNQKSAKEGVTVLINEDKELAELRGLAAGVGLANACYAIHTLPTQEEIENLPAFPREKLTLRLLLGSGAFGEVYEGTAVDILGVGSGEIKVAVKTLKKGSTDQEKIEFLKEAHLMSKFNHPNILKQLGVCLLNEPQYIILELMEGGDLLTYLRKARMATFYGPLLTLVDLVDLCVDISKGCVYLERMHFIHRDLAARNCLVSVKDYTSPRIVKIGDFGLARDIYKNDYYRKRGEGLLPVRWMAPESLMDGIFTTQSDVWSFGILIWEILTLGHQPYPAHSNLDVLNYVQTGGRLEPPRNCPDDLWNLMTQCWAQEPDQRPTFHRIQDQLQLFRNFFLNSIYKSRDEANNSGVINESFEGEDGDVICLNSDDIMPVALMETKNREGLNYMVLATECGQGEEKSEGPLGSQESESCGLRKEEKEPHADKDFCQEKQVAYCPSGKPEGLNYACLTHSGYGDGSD
Summary of the method: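 Radiometric proximity read-out: 33P incorporated into IRS-Tide captured on streptavidin imaging beads and imaged on LEADseeker. Phosphorylation ran 120 min at RT with 20 μM ATP (substrate-mix level) in Tris pH7.5/MgCl2/EGTA/Tween buffer; EDTA stop.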

[3] = molecular target: T2, Ba/F3 cells containing Ros1 wild-type protein (Homo sapiens, UniProt P08922, cells depend on it, form not given); test: Ba/F3-Ros1 cell proliferation assay, wild-type Ros1; format: cell-based, murine; details: without IL-3
T2 construct: The background only speaks of 'a number of different unrelated proteins' and names SLC34A2-ROS1 for HCC78 cells
T2 sequence (P08922 whole entry, stated change not applied): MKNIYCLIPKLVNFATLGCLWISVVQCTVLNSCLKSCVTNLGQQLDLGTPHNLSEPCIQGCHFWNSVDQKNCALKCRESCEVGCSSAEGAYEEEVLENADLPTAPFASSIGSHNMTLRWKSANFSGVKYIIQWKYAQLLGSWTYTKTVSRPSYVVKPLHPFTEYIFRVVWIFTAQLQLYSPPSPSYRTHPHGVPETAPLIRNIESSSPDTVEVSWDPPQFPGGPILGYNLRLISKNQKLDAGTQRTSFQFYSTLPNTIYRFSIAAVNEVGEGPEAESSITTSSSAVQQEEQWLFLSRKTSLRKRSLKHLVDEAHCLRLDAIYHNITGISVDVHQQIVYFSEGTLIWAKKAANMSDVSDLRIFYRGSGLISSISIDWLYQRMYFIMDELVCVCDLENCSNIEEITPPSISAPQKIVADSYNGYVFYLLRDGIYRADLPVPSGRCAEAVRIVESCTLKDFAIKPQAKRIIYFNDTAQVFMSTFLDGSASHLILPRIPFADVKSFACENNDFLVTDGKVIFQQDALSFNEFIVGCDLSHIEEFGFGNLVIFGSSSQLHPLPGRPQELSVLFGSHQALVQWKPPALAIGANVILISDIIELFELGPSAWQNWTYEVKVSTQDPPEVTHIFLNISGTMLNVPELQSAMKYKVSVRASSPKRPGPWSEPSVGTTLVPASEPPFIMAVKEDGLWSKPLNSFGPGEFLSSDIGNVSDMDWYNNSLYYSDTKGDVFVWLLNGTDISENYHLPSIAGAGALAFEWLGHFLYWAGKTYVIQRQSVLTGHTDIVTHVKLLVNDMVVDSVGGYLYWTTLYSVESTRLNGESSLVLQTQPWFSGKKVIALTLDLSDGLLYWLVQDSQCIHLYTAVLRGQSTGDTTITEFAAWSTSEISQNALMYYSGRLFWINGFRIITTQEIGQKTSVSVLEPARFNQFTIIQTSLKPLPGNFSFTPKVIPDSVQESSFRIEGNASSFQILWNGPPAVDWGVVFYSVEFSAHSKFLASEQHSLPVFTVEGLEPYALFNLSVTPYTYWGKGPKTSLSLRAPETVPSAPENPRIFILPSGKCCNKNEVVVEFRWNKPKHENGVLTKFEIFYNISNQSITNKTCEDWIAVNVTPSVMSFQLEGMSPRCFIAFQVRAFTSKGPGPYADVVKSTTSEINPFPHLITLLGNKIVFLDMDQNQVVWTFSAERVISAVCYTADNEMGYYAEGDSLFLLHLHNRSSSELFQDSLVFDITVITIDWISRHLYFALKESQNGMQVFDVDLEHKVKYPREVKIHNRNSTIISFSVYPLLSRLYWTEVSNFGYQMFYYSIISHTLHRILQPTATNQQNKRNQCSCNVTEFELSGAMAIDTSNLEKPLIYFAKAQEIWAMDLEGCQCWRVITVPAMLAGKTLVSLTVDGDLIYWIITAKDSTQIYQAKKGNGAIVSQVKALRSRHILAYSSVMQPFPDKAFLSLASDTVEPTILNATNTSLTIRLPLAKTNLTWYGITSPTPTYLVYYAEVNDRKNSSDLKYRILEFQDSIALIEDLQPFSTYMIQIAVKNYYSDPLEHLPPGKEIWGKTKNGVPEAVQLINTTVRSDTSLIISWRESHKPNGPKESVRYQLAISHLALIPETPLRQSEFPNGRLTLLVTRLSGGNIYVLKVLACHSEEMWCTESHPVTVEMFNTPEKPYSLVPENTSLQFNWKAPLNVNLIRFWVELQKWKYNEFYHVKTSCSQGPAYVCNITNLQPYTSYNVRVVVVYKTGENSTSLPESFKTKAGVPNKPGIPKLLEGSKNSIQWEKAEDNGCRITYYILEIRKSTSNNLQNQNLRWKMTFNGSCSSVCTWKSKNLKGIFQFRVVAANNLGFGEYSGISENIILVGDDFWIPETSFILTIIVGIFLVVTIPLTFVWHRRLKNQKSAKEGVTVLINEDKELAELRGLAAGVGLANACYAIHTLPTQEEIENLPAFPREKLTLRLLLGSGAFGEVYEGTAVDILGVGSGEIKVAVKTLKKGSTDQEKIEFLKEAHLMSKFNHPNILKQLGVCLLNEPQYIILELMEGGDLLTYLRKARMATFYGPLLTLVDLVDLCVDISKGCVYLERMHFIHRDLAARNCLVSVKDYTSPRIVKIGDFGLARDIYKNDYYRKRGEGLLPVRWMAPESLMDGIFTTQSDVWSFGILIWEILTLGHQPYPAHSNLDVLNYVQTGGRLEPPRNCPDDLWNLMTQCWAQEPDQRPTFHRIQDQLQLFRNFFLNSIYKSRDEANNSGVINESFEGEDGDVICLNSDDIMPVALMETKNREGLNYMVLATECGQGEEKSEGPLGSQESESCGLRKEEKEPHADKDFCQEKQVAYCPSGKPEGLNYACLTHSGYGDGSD
Summary of the method: (§1)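 Compounds dispensed from 100% DMSO; Ba/F3 cells carrying one of three Ros1 forms added at 20000/well in RPMI-1640 with 10% FBS. Plates kept 24 h at 37 °C under 5% CO2. Alamar Blue added, 4 h further incubation, fluorescence measured at 540/590 nm.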

[4] = test system: Ba/F3 cells containing Ros1 wild-type protein + IL-3; test: Ba/F3-Ros1 cell proliferation counter-screen, wild-type protein in the presence of 10 ng/ml murine IL-3; format: cell-based; details: Mus musculus, BaF3, 24 h, read-out: BaF3-ROS1 + IL3 pIC50 (converted)
Summary of the method: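 IL-3 rescue counter-screen: WT Ros1 Ba/F3, 10 ng/ml mIL-3, 24 h compound exposure, 37 °C/5% CO2; Alamar Blue added 4 h, RFU ex540/em590.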

[5] = molecular target: Ba/F3 cells containing Ros1 with a mutation at the gatekeeper residue (L2026M) (Homo sapiens, UniProt P08922, L2026M, cells depend on it, form not given); test: Ba/F3-Ros1 cell proliferation assay, L2026M gatekeeper mutant; format: cell-based, murine; details: without IL-3
Ba/F3 cells containing Ros1 with a mutation at the gatekeeper residue (L2026M), sequence (P08922 whole entry L2026M, form open): as the sequence (P08922 whole entry, stated change not applied) above, with L2026M counted along it
Summary of the method: as §1

[6] = HCC78 cells, 4 hours, Ros pY2274 normalized to total Ros1
[7] = counter-screen, wild-type, 10 ng/ml murine IL-3

| EC50 ([2]; HCC78 cells, 4 days, MTT) | Compound | IC50 ([1]; HCC78, 4 h) | EC50 [2] | IC50 (Ros1 enzyme) | BaF3-ROS1-IL3 pIC50 [3] | CC50 [4] | Ba/F3 Ros1 L2026M (-IL-3) pIC50 [5] | melting point | IC50 [1, 6] | CC50 [4, 7] |
| --- | --- | --- | --- | --- | --- | --- | --- | --- | --- | --- |
| – | O=C1NCCn2nc(-c3ccncc3)c(-c3ccc(OCc4ccc(C5CC5)nc4)cc3)c21 [Compound 3] | 79.4 nM | 794 nM | 79.4 nM | 7.3 | > 10000 nM | 7.0 | 276 °C | – | – |
| – | O=C1NC2(CC2)Cn2nc(-c3ccncc3)c(-c3ccc(OCc4ccc(C5CC5)cc4)cc3)c21 [Compound 5] | 50.1 nM | 316 nM | 25.1 nM | 7.6 | > 10000 nM | 7.5 | 239 °C | – | – |
| – | COc1cc(-c2c(-c3ccncc3)nn3c2C(=O)NCC3)cnc1OCc1ccc(C(C)C)cc1 [Compound 8] | 25.1 nM | 39.8 nM | 6.31 nM | 7.9 | > 10000 nM | 7.8 | 135 °C | – | – |
| 2000 nM | CC(C)(O)c1ccc(COc2ccc(-c3c(-c4ccncc4)nn4c3C(=O)NCC4)cc2)cc1 [Compound 9] | – | – | 631 nM | 6.4 | – | 6.2 | 290 °C | 2510 nM | > 10000 nM |
| 398 nM | CC(C)c1ccc(COc2ccc(-c3c(-c4ccncc4)nn4c3C(=O)N(C)CC4)cc2)cc1 [Compound 48] | – | – | 31.6 nM | 7.1 | – | – | 155 °C | 63.1 nM | > 10000 nM |
| – | CC(C)c1ncc(COc2ccc(-c3c(-c4ccncc4)nn4c3C(=O)NCC4)cc2)cn1 [Compound 103] | 3980 nM | 2000 nM | 1260 nM | 6.0 | > 10000 nM | – | 235 °C | – | – |
| – | COc1cc(-c2c(-c3ccnc(N)c3)nn3c2C(=O)N(C)CC3)ccc1OCc1ccc(C(C)C)cc1 [Compound 150] | 10 nM | 39.8 nM | 7.94 nM | 7.6 | > 10000 nM | 7.4 | – | – | – |
| – | CC(C)c1ccc(COc2ccc(-c3c(-c4ccncc4F)nn4c3C(=O)NCC4)cc2)cc1 [Compound 151] | 20 nM | 63.1 nM | 31.6 nM | 7.4 | > 10000 nM | 7.1 | – | – | – |
| 126 nM | CC(C)c1ccc(COc2ccc(-c3c(-c4ccncn4)nn4c3C(=O)N(CC3(C)COC3)CC4)cc2)cc1 [Compound 163] | – | – | 126 nM | 7.1 | – | 7.1 | – | 316 nM | > 10000 nM |
| 1580 nM | CC(C)c1ccc(COc2ccc(-c3c(-c4ccncc4)nn4c3CNCC4)cc2)cc1 [Compound 173] | – | – | 398 nM | 6.1 | – | – | 194 °C | 316 nM | > 10000 nM |
| 2000 nM | CC(C)c1ccc(COc2ccc(-c3c(-c4ccncc4)nn4c3CN(C(=O)CN(C)C)CC4)cc2)cc1 [Compound 181] | – | – | 794 nM | 5.7 | – | – | – | 1260 nM | 5010 nM |
| 794 nM | CC(C)c1ccc(COc2ccc(-c3c(-c4ccncc4)nn4c3CN(C)CC4)cc2)cc1 [Compound 185] | – | – | 126 nM | 6.3 | – | – | 120 °C | 158 nM | > 10000 nM |
| – | CC1Cn2nc(-c3ccncc3)c(-c3ccc(OCc4ccc(C5CC5)cc4)cc3)c2C(=O)N1 (stereo not drawn) [Compound 189] | 39.8 nM | 200 nM | 31.6 nM | 7.1 | > 10000 nM | – | 249 °C | – | – |
| – | CC(C)c1ccc(COc2ccc(-c3c(-c4ccncc4)nn4c3C(=O)NC(CO)C4)cc2)cc1 (stereo not drawn) [Compound 193] | – | 200 nM | 79.4 nM | 7.3 | > 10000 nM | 6.3 | 254 °C | – | – |
| – | CNCC1Cn2nc(-c3ccncc3)c(-c3ccc(OCc4ccc(C(C)C)cc4)cc3)c2C(=O)N1 (stereo not drawn) [Compound 194] | – | 501 nM | 79.4 nM | 6.6 | 6310 nM | 6.2 | 230 °C | – | – |
| 794 nM | CC(C)c1ccc(COc2ccc(-c3c(-c4ccncc4)nn4c3C(=O)NC(CN(C)CCO)C4)cc2)cc1 (stereo not drawn) [Compound 195] | – | – | 126 nM | 6.7 | – | 7.0 | 193 °C | – | > 10000 nM |
| – | CC(C)c1ccc(C2CCc3cc(-c4c(-c5ccncc5)nn5c4C(=O)NCC5)ccc3O2)cc1 (stereo not drawn) [Compound 199] | – | 1260 nM | 200 nM | 7.1 | > 10000 nM | 7.5 | 262 °C | – | – |
| 39.8 nM | CC(C)c1ccc(C2COc3cc(-c4c(-c5ccncc5)nn5c4C(=O)NCC5)ccc3O2)cc1 (stereo not drawn) [Compound 201] | – | – | 25.1 nM | 7.8 | – | 7.4 | 290 °C | – | > 10000 nM |
| – | O=C1c2c(-c3ccc(OCc4ccc(OC(F)(F)F)cc4)cc3F)c(-c3ccncc3)nn2CCN1CCO [Compound 206] | – | 100 nM | 39.8 nM | 7.5 | > 10000 nM | ~7.4 | 140 °C | – | – |
| 251 nM | CC(C)c1ccc(COC2CCN(c3c(-c4ccncc4)nn4c3C(=O)N(C)CC4)CC2)cc1 [Compound 215] | – | – | 126 nM | 7.0 | – | 7.2 | 140 °C | – | > 10000 nM |
| – | COc1cc(C(C)C)ccc1COc1ccc(-c2c(-c3ccncc3)nn3c2C(=O)NCC3)cc1 [Compound 216] | – | 631 nM | 63.1 nM | 7.3 | > 10000 nM | 6.9 | 200 °C | – | – |
| 2000 nM | O=C1NCCCn2nc(-c3ccncc3)c(-c3ccc(OCc4ccc(C5CC5)cc4)cc3)c21 [Compound 228] | – | – | 398 nM | 6.3 | – | – | 235 °C | 501 nM | > 10000 nM |
| – | CC(C)c1ccc(COc2ccc(-c3c(-c4ccnc(CO)c4)nn4c3C(=O)NCC4)cc2)cc1 [Compound 233] | – | 2510 nM | 794 nM | 6.5 | > 10000 nM | 5.9 | 232 °C | – | – |
